Among the test systems are HOP-92; HL-60; UACC-62; SF-295; OVCAR-3; UO-31; UACC-257; HOP-62; NCI-H460; SR; M14; NCI-H226; IGROV-1; SF-539; OVCAR-5; RPMI-8226; SK-MEL-2.
Holding throughout (experiment): DTP human tumour cell line panel, 48 h

Molecules are shown by their SMILES.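 Assay format: 96-well plates, 48-hour exposure. Here, GI50 denotes the concentration required for 50% inhibition of growth.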 Calls of active or inactive are those of the source. Rule as the data show it: active = GI50 up to about 1.1 µM and inactive = higher.

Usually GI50 stands for the concentration at which growth is held to half of that of the control. On to `NC(CCSCC(F)F)C(=O)O` (configuration not stated), for which the GI50 in the assay on HOP-92, in the assay with HL-60, in the assay on UACC-62, in the assay with SF-295, in the assay on OVCAR-3 and in the assay with UO-31 was > 100 µM (inactive) in each case. In addition, the GI50 in the assay on UACC-257, in the assay on HOP-62, with NCI-H460, with SR, in the assay with M14 and in the assay with NCI-H226 was > 100 µM (inactive) in each case. The GI50 with IGROV-1, in the assay with SF-539 and in the assay with OVCAR-5 was > 100 µM (inactive) each time.

Consider `CC(C)OP(=O)(OC(C)C)/C(Cl)=N/Nc1ccc([N+](=O)[O-])cc1`, for which the GI50 with HOP-92 is 44.9 µM (inactive); with HL-60, 43.7 µM (inactive); in the assay on UACC-62, 44.8 µM (inactive); in the assay with OVCAR-3 it was > 100 µM (inactive); in the assay with RPMI-8226 it was > 100 µM (inactive); in the assay with UO-31 it was > 100 µM (inactive). Further, the GI50 in the assay with UACC-257 is > 100 µM (inactive); in the assay on HOP-62, > 100 µM (inactive); in the assay on SK-MEL-2, > 100 µM (inactive); in the assay on NCI-H460, > 100 µM (inactive); with SR, 92.3 µM (inactive); in the assay with M14, > 100 µM (inactive). In addition, the GI50 is 0.778 µM (active) with NCI-H226, > 100 µM (inactive) in the assay with SF-539 and > 100 µM (inactive) in the assay with OVCAR-5.

In the case of `COC(=O)C1(O)c2ccccc2N=C2C1CCN2C` (configuration not stated), the GI50 in the assay with HOP-92, in the assay on HL-60, with UACC-62, with SF-295, in the assay on RPMI-8226 and in the assay with UO-31 was > 100 µM (inactive) each time. The GI50 with UACC-257, in the assay with HOP-62, with SK-MEL-2, with NCI-H460, with SR and with M14 was > 100 µM (inactive) in each case. Also, the GI50 in the assay with IGROV-1, in the assay on SF-539 and in the assay on OVCAR-5 was > 100 µM (inactive) in each case.

On to `COc1cc2c(cc1OC)-c1c(cc(OC)c(OC)c1OC)C2=O`, for which the GI50 with HOP-92 is > 100 µM (inactive); with HL-60, 98.6 µM (inactive); in the assay with UACC-62, > 100 µM (inactive); with SF-295, > 100 µM (inactive); in the assay on OVCAR-3, > 100 µM (inactive); in the assay on RPMI-8226 it was > 100 µM (inactive). Besides, the GI50 in the assay with UO-31 is 83.4 µM (inactive); in the assay on UACC-257, > 100 µM (inactive); in the assay with HOP-62 it was 25.9 µM (inactive); with NCI-H460, > 100 µM (inactive); in the assay with SR, > 100 µM (inactive); with M14 it was > 100 µM (inactive). Besides, the GI50 in the assay with NCI-H226, with IGROV-1, in the assay with SF-539 and with OVCAR-5 was > 100 µM (inactive) in each case.

Turning to `Cc1cc(C(=O)N2CCN(Cc3ccccc3)CC2)c(C)o1`, the GI50 is > 100 µM (inactive) in the assay on HOP-92; 25.4 µM (inactive) in the assay on HL-60; > 100 µM (inactive) in the assay on UACC-62; > 100 µM (inactive) in the assay on SF-295; > 100 µM (inactive) in the assay on OVCAR-3; > 100 µM (inactive) in the assay with RPMI-8226. Moreover, the GI50 in the assay with UO-31, in the assay with UACC-257, in the assay on HOP-62, in the assay with NCI-H460, with SR and with M14 was > 100 µM (inactive) in each case. Further, the GI50 in the assay with IGROV-1, in the assay on SF-539 and in the assay on OVCAR-5 was > 100 µM (inactive) throughout.

For `COC(=O)C1CSC(c2csc(CCN)n2)=N1` (configuration not stated), the GI50 in the assay on HOP-92, in the assay on HL-60, with UACC-62, in the assay on SF-295, in the assay with OVCAR-3 and with RPMI-8226 was > 100 µM (inactive) throughout. The GI50 with UO-31, in the assay on UACC-257, in the assay on SK-MEL-2, with NCI-H460, in the assay with SR and with M14 was > 100 µM (inactive) in each case. The GI50 in the assay with NCI-H226, in the assay with IGROV-1 and in the assay on OVCAR-5 was > 100 µM (inactive) throughout.

For `NC(=S)NNc1c([N+](=O)[O-])cnn(-c2ccccc2)c1=O`, the GI50 is 19.9 µM (inactive) with HOP-92; 4.62 µM (inactive) with HL-60; 12.1 µM (inactive) with UACC-62; 15.1 µM (inactive) in the assay on SF-295; 17.6 µM (inactive) in the assay with OVCAR-3; 20.7 µM (inactive) in the assay on RPMI-8226. In addition, the GI50 in the assay with UO-31 is 23.4 µM (inactive); with UACC-257 it was 22.9 µM (inactive); with HOP-62, 19.2 µM (inactive); in the assay on NCI-H460, 17.9 µM (inactive); in the assay with SR it was 4.05 µM (inactive); with M14, 15 µM (inactive). Moreover, the GI50 in the assay on NCI-H226 is 19.1 µM (inactive); with IGROV-1, 19.1 µM (inactive); in the assay with SF-539 it was 18.8 µM (inactive); in the assay with OVCAR-5, 18.4 µM (inactive).

As for `COc1cc2c[n+]3ccc4cc(OC)c(OC)cc4c3cc2cc1O`, the GI50 in the assay with HOP-92, in the assay on HL-60, in the assay on UACC-62, in the assay with SF-295, in the assay on RPMI-8226 and with UO-31 was > 100 µM (inactive) throughout. Moreover, the GI50 in the assay on UACC-257, with SK-MEL-2, with NCI-H460, in the assay with SR, in the assay with M14 and in the assay with IGROV-1 was > 100 µM (inactive) in each case. Moreover, the GI50 with SF-539 and in the assay on OVCAR-5 was > 100 µM (inactive) in each case.

As to `CC1(C)COC(C2(C)C(=O)C=C(c3ccccc3)c3ccccc32)=N1` (configuration not stated), the GI50 is 21.8 µM (inactive) in the assay on HOP-92; 27 µM (inactive) in the assay with HL-60; 54.3 µM (inactive) in the assay with UACC-62; 37.9 µM (inactive) in the assay on SF-295; 30.4 µM (inactive) in the assay on OVCAR-3; 34.9 µM (inactive) with RPMI-8226. The GI50 was 28.3 µM (inactive) with UO-31; 31.4 µM (inactive) with UACC-257; 64.9 µM (inactive) with HOP-62; 37.3 µM (inactive) in the assay with SK-MEL-2; 36.9 µM (inactive) in the assay on NCI-H460; 37.2 µM (inactive) with SR. The GI50 was 46.1 µM (inactive) in the assay with M14, 52.1 µM (inactive) in the assay on NCI-H226, 47.5 µM (inactive) in the assay with IGROV-1 and 43.6 µM (inactive) in the assay on SF-539.

The values are drawn from ChEMBL document CHEMBL1201862, “PubChem BioAssay data set” (2004).
